For data set [1], the target named is T1, Histamine H3 receptor (Homo sapiens, UniProt Q9Y5N1). In words: Binding affinity to human H3R.
The target of a further data set is Histamine H1 receptor (Homo sapiens, UniProt P35367). In words: Displacement of [3H]mepyramine from human H1R expressed in Sf9 cell membranes co-expressing RGS4 measured after 60 mins by scintillation counting analysis. Also on record: species or system Membrane. On the technique in general: In a radioligand displacement assay an active substance lowers the binding of a labelled ligand.
Histamine H1 receptor, sequence (P35367 whole entry): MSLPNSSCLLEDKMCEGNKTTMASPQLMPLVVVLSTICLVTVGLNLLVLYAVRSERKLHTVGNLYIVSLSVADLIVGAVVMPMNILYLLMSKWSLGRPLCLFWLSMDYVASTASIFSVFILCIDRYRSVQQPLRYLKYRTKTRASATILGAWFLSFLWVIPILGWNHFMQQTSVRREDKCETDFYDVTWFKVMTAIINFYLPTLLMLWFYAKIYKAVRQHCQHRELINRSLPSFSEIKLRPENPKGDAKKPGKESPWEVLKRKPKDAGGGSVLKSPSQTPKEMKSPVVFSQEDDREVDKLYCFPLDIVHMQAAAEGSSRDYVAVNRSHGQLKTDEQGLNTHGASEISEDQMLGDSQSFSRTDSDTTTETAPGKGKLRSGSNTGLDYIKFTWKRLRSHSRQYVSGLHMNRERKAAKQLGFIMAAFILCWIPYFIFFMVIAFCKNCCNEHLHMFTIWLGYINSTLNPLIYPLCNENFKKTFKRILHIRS

For another data set, the target named is Cytochrome P450 3A4 (Homo sapiens, UniProt P08684). The experiment in a line: Inhibition of recombinant CYP3A4 (unknown origin) at 10 uM measured after 30 mins by luciferase reporter gene assay. The note with it: recombinant enzyme, 0.5 h. Format: ADME. On the technique in general: A reporter such as luciferase makes a cellular process visible.
Cytochrome P450 3A4, sequence (P08684 whole entry): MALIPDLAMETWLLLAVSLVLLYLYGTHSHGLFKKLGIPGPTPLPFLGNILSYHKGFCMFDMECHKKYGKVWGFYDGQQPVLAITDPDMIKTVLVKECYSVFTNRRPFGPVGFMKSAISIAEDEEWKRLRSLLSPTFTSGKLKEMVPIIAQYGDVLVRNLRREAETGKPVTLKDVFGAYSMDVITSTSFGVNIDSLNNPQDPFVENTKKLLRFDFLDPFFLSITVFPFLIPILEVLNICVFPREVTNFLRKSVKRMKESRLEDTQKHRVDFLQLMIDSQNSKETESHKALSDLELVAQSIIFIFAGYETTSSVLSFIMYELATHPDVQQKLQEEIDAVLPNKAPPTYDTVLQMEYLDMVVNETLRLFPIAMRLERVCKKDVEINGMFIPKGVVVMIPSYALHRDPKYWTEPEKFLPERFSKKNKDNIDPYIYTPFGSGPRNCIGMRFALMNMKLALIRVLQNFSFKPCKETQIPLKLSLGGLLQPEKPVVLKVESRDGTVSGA
For data set [2], the target named is T1, Histamine H3 receptor. The experiment in a line: Displacement of [3H]UR-PI294 from human SP-FLAG-tagged H3R expressed in HEK293T cells measured after 60 to 120 mins by liquid scintillation counting analysis. Format: cell-based.
The target of the next data set is Histamine H4 receptor (Homo sapiens, UniProt Q9H3N8). The experiment in a line: Binding affinity to human H4R.
Histamine H4 receptor, sequence (Q9H3N8 whole entry): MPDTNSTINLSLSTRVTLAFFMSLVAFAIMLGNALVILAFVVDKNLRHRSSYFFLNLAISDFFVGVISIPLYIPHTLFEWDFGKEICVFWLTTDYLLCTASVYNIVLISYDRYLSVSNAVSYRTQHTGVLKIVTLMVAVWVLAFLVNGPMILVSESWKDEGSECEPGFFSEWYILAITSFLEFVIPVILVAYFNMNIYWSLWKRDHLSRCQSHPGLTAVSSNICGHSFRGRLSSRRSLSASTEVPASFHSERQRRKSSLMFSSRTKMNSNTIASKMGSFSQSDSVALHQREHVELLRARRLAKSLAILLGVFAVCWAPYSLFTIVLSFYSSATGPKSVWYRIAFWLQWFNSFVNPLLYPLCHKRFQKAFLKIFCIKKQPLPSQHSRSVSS
Data set [3] can be described thus: Effect on spontaneous locomotor activity in Wistar rat model of diet induced obesity at 1 mg/kg/day, ip administered for 27 days. The settings on record: in vivo, 648 h, time 27 day. Format: ADME, organism-based.
The subject of data set [4] is Rattus norvegicus. The experiment in a line: Anorectic activity in Wistar rat model of diet induced obesity assessed as reduction in total cholesterol level at 1 mg/kg/day, ip administered for 28 days measured on day 29 by spectrophotometric method. The settings on record: time 28.0 day. Format: functional, organism-based.
In data set [5] the test system is Rattus norvegicus. The experiment in a line: Anorectic activity in Wistar rat model of diet induced obesity assessed as reduction in amount of peritoneal fat at 1 mg/kg/day, ip administered for 28 days. The note with it: time 28.0 day. Format: functional, organism-based.
The test system of data set [6] is Rattus norvegicus. The experiment in a line: Anorectic activity in Wistar rat model of diet induced obesity assessed as increase in HDL level at 1 mg/kg/day, ip administered for 28 days measured on day 29 by spectrophotometric method. The settings on record: time 28.0 day. Format: functional, organism-based.
For data set [7], the system named is Rattus norvegicus. The experiment in a line: Anorectic activity in Wistar rat model of diet induced obesity assessed as reduction in plasma glucose level at 1 mg/kg/day, ip administered for 28 days measured on day 29 by spectrophotometric method. The note with it: time 28.0 day. Format: functional, organism-based.
A short description of data set [8]: Effect on spontaneous locomotor activity in Wistar rat model of diet induced obesity at 1 to 10 mg/kg/day, ip administered for 27 days. Format: ADME, organism-based. The note with it: in vivo, 648 h, dose 1-10 mg/kg/day, time 27 day.
Data set [9] relates to Rattus norvegicus. In words: Anorectic activity in Wistar rat model of diet induced obesity assessed as reduction in triglyceride level at 1 to 10 mg/kg/day, ip administered for 28 days measured on day 29 by spectrophotometric method. Format: functional, organism-based. The note with it: dose 1-10 mg/kg/day, time 28.0 day.
Data set [10] has as its system Rattus norvegicus. The experiment in a line: Anorectic activity in Wistar rat model of diet induced obesity assessed as reduction in total cholesterol level at 10 mg/kg/day, ip administered for 28 days measured on day 29 by spectrophotometric method. The settings on record: time 29.0 day. Format: functional, organism-based.
Data set [11] concerns Rattus norvegicus. The experiment in a line: Anorectic activity in Wistar rat model of diet induced obesity assessed as reduction in plasma glucose level at 10 mg/kg/day, ip administered for 28 days measured on day 29 by spectrophotometric method. Format: functional, organism-based. The note with it: time 29.0 day.
The subject of data set [12] is Rattus norvegicus. The experiment in a line: Anorectic activity in Wistar rat model of diet induced obesity assessed as reduction in body weight at 1 mg/kg/day, ip administered for 28 days. Format: functional, organism-based. The settings on record: time 28.0 day.
For data set [13], the system named is Rattus norvegicus. The experiment in a line: Anorectic activity in Wistar rat model of diet induced obesity assessed as reduction in amount of peritoneal fat at 10 mg/kg/day, ip administered for 28 days. Format: functional, organism-based. The note with it: time 28.0 day.
The test system of data set [14] is Rattus norvegicus. The experiment in a line: Anorectic activity in Wistar rat model of diet induced obesity assessed as reduction in calorie intake at 10 mg/kg/day, ip administered for 28 days. The note with it: time 28.0 day. Format: functional, organism-based.
Data set [15] relates to Rattus norvegicus. In words: Anorectic activity in Wistar rat model of diet induced obesity assessed as reduction in body weight at 10 mg/kg/day, ip administered for 28 days. The note with it: time 28.0 day. Format: functional, organism-based.
The subject of data set [16] is Rattus norvegicus. The experiment in a line: Anorectic activity in Wistar rat model of diet induced obesity assessed as reduction in calorie intake at 1 mg/kg/day, ip administered for 28 days. The note with it: time 28.0 day. Format: functional, organism-based.
For data set [17], the system named is Rattus norvegicus. In words: Anorectic activity in Wistar rat model of diet induced obesity assessed as increase in HDL level at 10 mg/kg/day, ip administered for 28 days measured on day 29 by spectrophotometric method. The note with it: time 29.0 day. Format: functional, organism-based.

Active and inactive are the calls of the source. The rule behind the calls is not given here.

As a reminder, the Ki is a dissociation constant, usually derived from enzyme kinetics or from competition with a known ligand. Low values mean higher affinity, high ones lower affinity.

T1 sequence (Q9Y5N1 whole entry): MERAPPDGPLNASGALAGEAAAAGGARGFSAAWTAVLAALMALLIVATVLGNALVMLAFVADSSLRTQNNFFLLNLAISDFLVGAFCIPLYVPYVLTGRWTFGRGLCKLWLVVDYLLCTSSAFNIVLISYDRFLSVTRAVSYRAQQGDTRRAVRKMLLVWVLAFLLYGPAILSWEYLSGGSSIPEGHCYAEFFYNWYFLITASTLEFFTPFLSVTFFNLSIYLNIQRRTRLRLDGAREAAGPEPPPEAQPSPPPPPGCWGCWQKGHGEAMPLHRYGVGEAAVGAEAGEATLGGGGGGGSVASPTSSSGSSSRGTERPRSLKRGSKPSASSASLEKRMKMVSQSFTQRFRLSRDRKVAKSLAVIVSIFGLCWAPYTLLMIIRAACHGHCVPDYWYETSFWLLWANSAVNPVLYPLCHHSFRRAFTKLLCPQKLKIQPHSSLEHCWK

At Histamine H3 receptor [1], `CN(C)[C@@H]1CCN(CCCOc2ccc(-c3ccc(C#N)cc3)cc2)C1` showed an inhibition constant Ki of 2 nM.

Take `c1ccc(Nc2ccc(OCCCN3CCN(c4ccncc4)CC3)cc2)cc1`: the Ki on Histamine H1 receptor stood at 4.22 µM; on Histamine H3 receptor [2] it was 8.43 nM. In addition, the “inhibition (INH)” value on Cytochrome P450 3A4 is recorded as “Active”.

Take `Clc1ccc(CCCOCCCN2CCCCC2)cc1` [PITOLISANT]: on Histamine H4 receptor, the inhibition constant (Ki) was > 100 µM.

For the compound `O=C(c1ccc(Cl)cc1)c1ccc(OCCCN2CCN(c3ccncc3)CC2)cc1`, the Ki on Histamine H1 receptor was determined as 6.86 µM; at Histamine H3 receptor [2], 23 nM. Also, on Cytochrome P450 3A4, the “inhibition (INH)” value is “Active”.

As to `Clc1cccc(-c2ccc(OCCCN3CCN(c4ccncc4)CC3)cc2)c1`, the Ki on Histamine H1 receptor stood at 1.99 µM; on Histamine H3 receptor [2], 109 nM. For the same compound, on Cytochrome P450 3A4, the “inhibition (INH)” value is “Active”.

Regarding `Clc1ccc(-c2ccc(OCCCN3CCN(c4ccncc4)CC3)cc2)cc1`, the inhibition constant (Ki) on Histamine H1 receptor was 4.09 µM; at Histamine H3 receptor [2], 140 nM. Moreover, the “inhibition (INH)” value at Cytochrome P450 3A4 is “Active”.

As to `O=C(c1ccc(OCCCc2cnc[nH]2)cc1)C1CC1` [CIPROXIFAN], the “inhibition (INH)” value at Cytochrome P450 3A4 is “Active”.

As to `Fc1ccc(-c2ccc(OCCCN3CCN(c4ccncc4)CC3)cc2)cc1`, the Ki at Histamine H1 receptor worked out at 3.69 µM; on Histamine H3 receptor [2] it was 60.7 nM. In addition, the “inhibition (INH)” value on Cytochrome P450 3A4 is given as “Active”.

For the compound `c1ccc(Oc2ccc(OCCCN3CCN(c4ccncc4)CC3)cc2)cc1`, the inhibition constant Ki at Histamine H1 receptor was 4.57 µM; on Histamine H3 receptor [2], 20.3 nM. The “inhibition (INH)” value on Cytochrome P450 3A4 is given as “Active”.

For `c1ccc(Cc2ccc(OCCCN3CCN(c4ccncc4)CC3)cc2)cc1`, the figures for the Ki on Histamine H1 receptor and on Histamine H3 receptor [2] were 4.24 µM and 17.6 nM, respectively. Further, the “inhibition (INH)” value at Cytochrome P450 3A4 is “Active”.

On to `c1ccc2cc(OCCCN3CCN(c4ccncc4)CC3)ccc2c1`, for which the inhibition constant (Ki) on Histamine H1 receptor worked out at 7.42 µM; on Histamine H3 receptor [2], 67.2 nM. On Cytochrome P450 3A4, the “inhibition (INH)” value was “Active”.

In the case of `CN(C)[C@@H]1CCN(CCCOc2ccc(-c3ccc(C#N)cc3)cc2F)C1`, the Ki at Histamine H3 receptor [1] was 3.98 nM.

As for `O=C(c1ccc(F)cc1)c1ccc(OCCCN2CCN(c3ccncc3)CC2)cc1`, the Ki on Histamine H1 receptor was > 10 µM; on Histamine H3 receptor [2], 5.84 nM. The “inhibition (INH)” value at Cytochrome P450 3A4 was “Active”.

`Cc1c(C(=O)NN2CCCCC2)nn(-c2ccc(Cl)cc2Cl)c1-c1ccc(Cl)cc1` [RIMONABANT]: the Activity result in [3] is given as “Non-Toxic”. In addition, the result in the data set with Rattus norvegicus [4], in the data set on Rattus norvegicus [5] and with Rattus norvegicus [6] was Active.

As for `O=C(c1ccc(OCCCN2CCC(c3ccncc3)CC2)cc1)C1CC1`, the Ki on Histamine H1 receptor was > 10 µM; on Histamine H3 receptor [2] it was 7.7 nM. Further, the “inhibition (INH)” value at Cytochrome P450 3A4 is on record as “Active”.

On to `N#Cc1ccc(-c2ccc(OCCCN3CCN(c4ccncc4)CC3)cc2)cc1`, for which the outcome in the data set on Rattus norvegicus [7] was inactive. Besides, the results for the Ki at Histamine H1 receptor and on Histamine H3 receptor [2] were 2.9 µM and 7.86 nM, respectively. Besides, the “inhibition (INH)” value at Cytochrome P450 3A4 was “Active”. The Activity entry in data set [8] was “Non-Toxic”. Moreover, the outcome in the data set with Rattus norvegicus [9], in the data set on Rattus norvegicus [10], with Rattus norvegicus [11], with Rattus norvegicus [12], in the data set with Rattus norvegicus [13] and in the data set with Rattus norvegicus [14] was Active. For the same compound, the outcome with Rattus norvegicus [15], in the data set with Rattus norvegicus [16], in the data set with Rattus norvegicus [5], in the data set on Rattus norvegicus [17] and with Rattus norvegicus [6] was Active.

Turning to `O=C(c1ccc(OCCCN2CCN(c3ccncc3)CC2)cc1)C1CC1`, the values for the Ki on Histamine H1 receptor and on Histamine H3 receptor [2] were > 10 µM and 3.17 nM, respectively. For the same compound, on Cytochrome P450 3A4, the “inhibition (INH)” value was “Active”.

For the origin of these results see ChEMBL document CHEMBL4732109, “Structural modifications in the distal, regulatory region of histamine H receptor antagonists leading to the identification of a potent anti-obesity agent” (Eur J Med Chem, 2021).
